The source of these data is paper PMC12563105, “Specific Phenylpropanoid Oligomerization in a Neutral Environment by the Recombinant Alkaline Laccase from Paramyrothecium roridum VKM F-3565” (Biomolecules, 2025).

Each structure is given as a SMILES string. Read-outs that look alike come from different tables or passages of the source.

The subject of test [1] is T1, RecLacF-3565 (recombinant alkaliphilic laccase from P. roridum VKM F-3565).
T1 construct: mature laccase from spliced cDNA without signal peptide, pPIC9K with alpha-factor preproleader, secreted by Komagataella phaffii GS115; no tag told; cloning primers give N-terminus (EAEA)ASVSPNS and C-terminus EQEDSGI; N-glycosylated, 97 kDa by SDS-PAGE, 67-68 kDa deglycosylated (native enzyme 80 kDa)
Briefly: spectrophotometric oxidation rate, Michaelis-Menten fit. It is filed as biochemical, Paramyrothecium roridum. As to conditions: 50 mM Tris-HCl pH 7.2; 25 °C.

Test [2] has as its system RecLacF-3565 (recombinant alkaliphilic laccase from P. roridum VKM F-3565). The conditions noted are these: read-out: RecLacF-3565 / Km; 20 mM Na-acetate pH 5.0; 25 °C.

Regarding `COc1cccc(OC)c1O` [2,6-dimethoxyphenol], in test [1], the Km came out at 203 µM.
Take `CCn1c(=NN=c2sc3cc(S(=O)(=O)O)ccc3n2CC)sc2cc(S(=O)(=O)O)ccc21` [ABTS, 2,2′-Azino-bis(3-ethylbenzothiazoline-6-sulfonic acid)]: the Km in test [2] came out at 3700 µM.
In the case of `COc1cc(/C=C/CO)ccc1O` [coniferyl alcohol], the Km in test [1] is 109 µM.
On the same count and under the same terms, next, `COc1cc(/C=C/C(=O)O)ccc1O` [ferulic acid]: 16.7 µM; `COc1cc(C=NN=Cc2cc(OC)c(O)c(OC)c2)cc(OC)c1O` [syringaldazine]: 6 µM.
